From publication PMC8632246, “KCNQ and KCNE Isoform-Dependent Pharmacology Rationalizes Native American Dual Use of Specific Plants as Both Analgesics and Gastrointestinal Therapeutics” (Frontiers in Physiology, 2021) come the findings set out here.

The target of one experiment is T1, KCNQ2/3 (KCNQ3 subunit) (Homo sapiens, UniProt O43525+O43526).
T1 construct: human KCNQ2/3 heteromeric channel expressed in Xenopus oocytes; with KCNQ2
Briefly: two-electrode voltage clamp in Xenopus oocytes, dose response at -70 mV; WL/WL and RA/RA mutants insensitive. The experiment is classed as cell-based. Background: Two-electrode voltage clamp holds a large cell at a set potential and records current.

The target of a further experiment is T2, KCNQ1 (Homo sapiens, UniProt P51787).
T2 construct: homomeric human KCNQ1 expressed in Xenopus oocytes
T2 sequence (P51787 1-676): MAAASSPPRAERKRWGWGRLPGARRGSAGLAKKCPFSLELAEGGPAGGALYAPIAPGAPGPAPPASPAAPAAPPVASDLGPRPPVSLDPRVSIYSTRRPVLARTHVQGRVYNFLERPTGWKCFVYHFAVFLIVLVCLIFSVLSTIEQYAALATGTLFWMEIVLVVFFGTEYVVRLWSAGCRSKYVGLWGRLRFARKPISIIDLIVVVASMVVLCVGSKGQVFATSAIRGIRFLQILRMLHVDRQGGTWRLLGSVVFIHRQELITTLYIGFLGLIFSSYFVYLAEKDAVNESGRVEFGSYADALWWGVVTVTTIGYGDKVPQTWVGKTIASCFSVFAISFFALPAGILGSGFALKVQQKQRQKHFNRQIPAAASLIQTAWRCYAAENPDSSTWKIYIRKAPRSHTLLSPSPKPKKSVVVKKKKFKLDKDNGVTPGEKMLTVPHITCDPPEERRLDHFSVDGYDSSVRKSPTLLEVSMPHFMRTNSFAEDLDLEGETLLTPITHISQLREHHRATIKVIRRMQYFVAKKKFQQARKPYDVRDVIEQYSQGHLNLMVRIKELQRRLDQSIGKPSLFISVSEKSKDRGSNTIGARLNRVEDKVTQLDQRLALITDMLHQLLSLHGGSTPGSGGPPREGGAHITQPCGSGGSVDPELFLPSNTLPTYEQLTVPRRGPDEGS
Briefly: two-electrode voltage clamp in Xenopus oocytes, […] quercetin. The experiment is classed as cell-based.

What is called EC50 is the concentration giving half of the maximal effect. Low values mean greater potency, high ones weaker potency.

T1 sequence (O43525 whole entry): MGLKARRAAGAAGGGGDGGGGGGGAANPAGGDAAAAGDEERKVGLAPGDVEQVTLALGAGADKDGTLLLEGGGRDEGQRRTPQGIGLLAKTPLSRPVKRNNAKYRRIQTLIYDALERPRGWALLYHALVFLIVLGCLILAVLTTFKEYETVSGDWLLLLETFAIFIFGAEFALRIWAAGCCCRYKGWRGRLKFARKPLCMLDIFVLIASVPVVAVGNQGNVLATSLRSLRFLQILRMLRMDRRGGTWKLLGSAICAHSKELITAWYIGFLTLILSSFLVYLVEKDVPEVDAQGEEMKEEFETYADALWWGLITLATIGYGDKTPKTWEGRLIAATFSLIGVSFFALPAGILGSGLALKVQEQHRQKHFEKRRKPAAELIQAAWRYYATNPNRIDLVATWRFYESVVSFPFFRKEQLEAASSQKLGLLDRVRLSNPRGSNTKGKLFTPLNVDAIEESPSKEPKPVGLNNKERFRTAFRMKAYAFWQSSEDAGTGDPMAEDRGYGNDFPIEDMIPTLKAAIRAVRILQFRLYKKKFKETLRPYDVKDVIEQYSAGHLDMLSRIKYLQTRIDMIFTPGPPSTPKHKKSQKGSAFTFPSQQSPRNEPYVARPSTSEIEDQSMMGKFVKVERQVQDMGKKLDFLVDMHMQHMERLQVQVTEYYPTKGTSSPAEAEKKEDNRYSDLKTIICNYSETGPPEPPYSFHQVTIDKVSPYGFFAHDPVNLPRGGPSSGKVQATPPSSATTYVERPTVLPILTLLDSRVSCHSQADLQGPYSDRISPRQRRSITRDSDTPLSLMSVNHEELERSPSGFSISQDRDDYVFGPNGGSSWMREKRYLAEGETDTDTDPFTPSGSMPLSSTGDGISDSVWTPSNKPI
T1 sequence (O43526 whole entry): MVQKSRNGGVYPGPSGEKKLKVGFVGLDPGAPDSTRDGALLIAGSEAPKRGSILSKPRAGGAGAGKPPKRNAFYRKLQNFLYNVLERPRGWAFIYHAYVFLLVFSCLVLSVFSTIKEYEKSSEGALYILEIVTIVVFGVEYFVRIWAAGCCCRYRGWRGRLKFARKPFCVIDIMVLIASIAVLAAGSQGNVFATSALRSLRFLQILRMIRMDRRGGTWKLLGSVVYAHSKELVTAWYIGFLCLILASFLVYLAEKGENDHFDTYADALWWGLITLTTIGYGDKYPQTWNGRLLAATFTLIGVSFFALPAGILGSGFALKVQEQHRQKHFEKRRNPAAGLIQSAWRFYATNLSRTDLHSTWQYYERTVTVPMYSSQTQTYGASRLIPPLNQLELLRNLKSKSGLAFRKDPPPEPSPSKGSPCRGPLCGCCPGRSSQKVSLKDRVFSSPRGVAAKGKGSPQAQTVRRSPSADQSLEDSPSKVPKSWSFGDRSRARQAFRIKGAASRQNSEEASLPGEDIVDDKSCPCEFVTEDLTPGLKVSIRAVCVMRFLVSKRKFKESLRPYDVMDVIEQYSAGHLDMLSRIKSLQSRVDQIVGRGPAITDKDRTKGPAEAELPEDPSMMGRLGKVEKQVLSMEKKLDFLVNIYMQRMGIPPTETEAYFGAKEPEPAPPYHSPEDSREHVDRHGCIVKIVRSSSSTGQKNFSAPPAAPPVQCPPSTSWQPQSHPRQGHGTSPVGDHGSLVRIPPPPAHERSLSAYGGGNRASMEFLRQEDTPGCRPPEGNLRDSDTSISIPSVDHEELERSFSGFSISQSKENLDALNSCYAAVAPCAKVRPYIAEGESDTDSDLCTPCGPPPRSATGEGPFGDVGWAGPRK

As for `O=C(O)c1cc(O)c(O)c(O)c1` [gallic acid], the response at KCNQ2/3 (KCNQ3 subunit) was half-maximal at 560 ± 3 nM (EC50).

In the case of `O=c1c(O)c(-c2ccc(O)c(O)c2)oc2cc(O)cc(O)c12` [quercetin], the “two-electrode voltage clamp in Xenopus oocytes, 100 uM quercetin” value on KCNQ1 was “quercetin enhances both activation and inactivation of homomeric KCNQ1 channels, inducing visible voltage-dependent decay at depolarized potentials”.
